Columns and labels:
ACTH in plasma = test: ACTH production by LPS induction; assay type: in vivo, C57BL/6 strain mice; settings: wild type mice; LPS 0.1 mg/kg i.p.; blood 60 minutes after LPS; EP1 antagonist given 1 hour before LPS; FIG. 2
Experimental: 0.1 mg/kg of LPS (lipopolysaccharide) as an infectious stress was intraperitoneally administered to C57BL/6 strain mice. The blood be gathered at 60 minutes later after administering LPS, the induced stress reaction, that is, activation of hypothalamus-pituitary-adrenal system were measured as a marker on ACTH in plasma. ACTH was measured with ACTH IRMA kit (Mitsubishi Yuka Medical Co., Tokyo, Japan). (4-[2-(N-isobutyl-2-furanylsulfonylamino)-5-trifluoromethylphenoxymethyl]cinna mic acid (the compound which had been described to example 18(94) in WO98/27053, was used.), which is EP1 antagonist, was administered 1 hour ago before administering LPS.

C57BL/6 mice = test: Decrease of spontaneous locomotor activity by LPS induction; assay type: in vivo; settings: wild mice; LPS 0.1 mg/kg i.p.; 0.1% (W/W) EP1 antagonist mixed with food; 12 hours, 8 p.m. to 8 a.m.; FIG. 4
Experimental: 0.1 mg/kg of LPS is intraperitoneally administered to C57BL/6 mice, they are put in acrylic cage (30×45×35 cm (height), and the momentum for 12 hours from the 8 p.m. to 8 a.m. of next morning was measured with mouse action meter, Infrared photo beam counter (Neuroscience Co., Ltd., Tokyo, Japan). 0.1% (W/W) of EP1 antagonist (the same as experiment example 1 was used) mixed with food was given. Similarly, the difference of the momentum by administering LPS were compared by using wild mice (WT) and EP1 receptor-deficient mice.

WT mice = test: Action of jumping off platform; assay type: in vivo; settings: 10 mg/kg i.p., about 20 cm high platform, 7 minutes, FIG. 5
Experimental: Wild mice, EP1 or EP3 receptor-deficient mice, or WT mice to which 10 mg/kg of EP1 antagonist (the same as experiment example 1 was used.) was intraperitoneally administered put on about 20 cm high platform (beaker), and the presence of the action of jumping off was observed.

wild mice = test: Social behaviors on cohabiting with young male mice (smelling action); assay type: in vivo; settings: wild mice cohabiting with young male mice (5 weeks of age)
Excerpt: (§1) The action admitted when wild mice (WT) or EP1 receptor-deficient mice cohabit with young male mice (5 weeks of ages) was observed.

[1] = system: EP1 receptor-deficient mice; test: Aggressive behavior after administering haloperidol; assay type: in vivo; settings: EP1 receptor-deficient mice given haloperidol
Experimental: After two male mice (wild mice (WT) or EP1 receptor-deficient mice) were put in 3 L of glass container and stimulated by the electroshock (1 H, 200 m seconds, 0.3 mA for 3 minutes), these aggressive behaviors were recorded to the video. The time up to the first aggressive behavior (latency; second) and the attack frequency, and total attack time was compared.
as §1
As a result of experiment similar to experiment example 6 by administering haloperidol to EP1 receptor-deficient mice, it was confirmed that the time up to the first attack elongates, the attack frequency decreases, and the total of attack time shortens.

[2] = system: EP1 receptor-deficient mice; test: Spontaneous locomotor activity after administering haloperidol; assay type: in vivo; settings: EP1 receptor-deficient mice given haloperidol
Experimental: Furthermore, it was also confirmed that the spontaneous locomotor activity decreased when haloperidol was administered to EP1 receptor-deficient mice.

SMILES	amount of ACTH production by LPS-induction (ACTH in plasma)	decrease of the spontaneous locomotor activity induced by LPS (C57BL/6 mice)	mice jumped off the platform (WT mice)	time of the smelling action (wild mice)	attack frequency [1]	time up to the first attack [1]	total of attack time [1]	spontaneous locomotor activity [2]
CC(C)CN(c1ccc(C(F)(F)F)cc1OCc1ccc(C=CC(=O)O)cc1)S(=O)(=O)c1ccco1 [EP1 antagonist, 4-[2-(N-isobutyl-2-furanylsulfonylamino)-5-trifluoromethylphenoxymethyl]cinna mic acid]	significantly decreases	has decreased	All mice in the EP1 antagonist administrated group jumped off the platform 7 minutes later	shortened				
O=C(CCCN1CCC(O)(c2ccc(Cl)cc2)CC1)c1ccc(F)cc1 [haloperidol]					decreases	elongates	shortens	decreased

Source: patent US20060058394A1, “Medicine of post-traumatic stress disorder” (KYOTO UNIVERSITY, priority 2001, published 2006)
